Measured values published in US10597388B2, “Pyridazinone herbicides” (FMC CORPORATION, priority 2014, dated 2020).

How the values were obtained:
Format in all cases: in vivo
corn (Zea mays) = assay: Test A greenhouse herbicide test, pre- and postemergence; settings: Postemergence
Outline: (§1)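 Seeds sown in loam–sand blend got a preemergence directed soil spray of compound in non-phytotoxic solvent with surfactant. Postemergence treatment was given at 2–10 cm, one- to two-leaf stage. After ~10 d in greenhouse, injury was rated visually vs untreated controls, 0 (no effect) to 100 (complete control).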

[1] = system: pigweed (Amaranthus retroflexus); assay: as above
Outline: as §1

[2] = system: barnyardgrass (Echinochloa crus-galli); assay: as above
Outline: as §1

[3] = system: foxtail, giant (giant foxtail, Setaria faberii); assay: as above
Outline: as §1

[4] = system: wheat (Triticum aestivum); assay: as above; settings: Postemergence
Outline: as §1

[5] = system: ragweed (common ragweed, Ambrosia elatior); assay: as above
Outline: as §1

[6] = system: ryegrass, Italian (Italian ryegrass, Lolium multiflorum); assay: as above
Outline: as §1

kochia (Kochia scoparia) = assay: as above
Outline: as §1

[7] = system: mustard, wild (wild mustard, Sinapis arvensis); assay: Test D controlled growth environment herbicide test, pre- and postemergence
Source text: Seeds of plant species selected from bluegrass (annual bluegrass, Poa annua), blackgrass (Alopecurus myosuroides), Canada thistle (Cirsium arvense), canarygrass (Phalaris minor), chickweed (common chickweed, Stellaria media), geranium, cutleaf (cutleaf geranium, Geranium dissectum), galium (catchweed bedstraw, Galium aparine), bromegrass, downy (downy bromegrass, Bromus tectorum), field poppy (Papaver rhoeas), field violet (Viola arvensis), foxtail, green (green foxtail, Setaria viridis), deadnettle (henbit deadnettle, Lamium amplexicaule), ryegrass, Italian (Italian ryegrass, Lolium multiflorum), kochia (Kochia scoparia), lambsquarters (Chenopodium album), oilseed rape (Brassica napus), pigweed (Amaranthus retroflexus), chamomile (scentless chamomile, Matricaria inodora), Russian thistle (Salsola kali), speedwell (bird's-eye speedwell, Veronica persica), barley, spring (spring barley, Hordeum vulgare), wheat, spring (spring wheat, Triticum aestivum), buckwheat, wild (wild buckwheat, Polygonum convolvulus), mustard, wild (wild mustard, Sinapis arvensis), oat, wild (wild oat, Avena fatua), radish, wild (wild radish, Raphanus raphanistrum), windgrass (Apera spica-venti), barley, winter (winter barley, Hordeum vulgare), and wheat, winter (winter wheat, Triticum aestivum) were planted into a silt loam soil and treated preemergence with test chemicals formulated in a non-phytotoxic solvent mixture which included a surfactant.
At the same time, these species were planted in pots containing Redi-Earth® planting medium (Scotts Company, 14111 Scottslawn Road, Marysville, Ohio 43041) comprising spaghnum peat moss, vermiculite, wetting agent and starter nutrients and treated with postemergence applications of the test chemicals formulated in the same manner. Plants ranged in height from 2 to 18 cm (1- to 4-leaf stage). Treated plants and controls were maintained in a controlled growth environment for 14 to 21 d after which time all species were compared to controls and visually evaluated. Plant response ratings, summarized in Table D, are based on a scale of 0 to 100 where 0 is no effect and 100 is complete control. A dash (-) response means no test result.

[8] = 125 g ai/ha, 0 to 100 scale where 0 is no effect and 100 is complete control
[9] = 500 g ai/ha, visual rating after approx. 10 d, 0 to 100 scale (0 no effect, 100 complete control)
[10] = Postemergence, 125 g ai/ha, 0 to 100 scale where 0 is no effect and 100 is complete control
[11] = Postemergence, 500 g ai/ha, visual rating after approx. 10 d, 0 to 100 scale (0 no effect, 100 complete control)
[12] = Preemergence, 125 g ai/ha, 0 to 100 scale where 0 is no effect and 100 is complete control
[13] = Preemergence, 500 g ai/ha, 0 to 100 scale where 0 is no effect and 100 is complete control
[14] = Postemergence, 500 g ai/ha, 0 to 100 scale, 0 is no effect, 100 is complete control
[15] = Postemergence, 31 g ai/ha, scale 0 to 100 (0 no effect, 100 complete control)
[16] = Postemergence, 125 g ai/ha, visual rating on scale 0 (no effect) to 100 (complete control), 14 to 21 d
[17] = Postemergence, 250 g ai/ha, scale 0 to 100 (0 no effect, 100 complete control)
[18] = Preemergence, 125 g ai/ha, scale 0 to 100 (0 no effect, 100 complete control)
[19] = Preemergence, 250 g ai/ha, scale 0 to 100, 0 no effect, 100 complete control
[20] = postemergence, 62 g ai/ha, scale 0 to 100, 0 no effect, 100 complete control

Question: Which results are given for CCCC(=O)Oc1c(C)nn(C)c(=O)c1-c1c(C)sc2ccc(C)cc12 [Compound 105]?
Answer: Plant response rating, Corn (corn (Zea mays); [8]): 0; Plant response rating, Corn (corn (Zea mays); [9]): 30; Plant response rating, Pigweed [1, 10]: 90; Plant response rating, Pigweed [1, 11]: 90; Pigweed plant response rating [1, 12]: 100; Plant response rating, Pigweed [1, 13]: 100; Plant response rating, Barnyardgrass [2, 10]: 50; Barnyardgrass plant response rating [2, 14]: 90; Barnyardgrass plant response rating [2, 12]: 20; Plant response rating, Barnyardgrass [2, 13]: 100; Plant response rating, Foxtail, Giant [3, 10]: 70; Plant response rating, Foxtail, Giant [3, 11]: 90; Foxtail, Giant plant response rating [3, 12]: 90; Plant response rating, Foxtail, Giant [3, 13]: 100; Plant response rating, Wheat [4, 8]: 0; Plant response rating, Wheat [4, 9]: 20; Plant response rating, Ragweed [5, 10]: 90; Plant response rating, Ragweed [5, 11]: 100; Ragweed plant response rating [5, 12]: 100; Plant response rating, Ragweed [5, 13]: 100; Plant response rating, Ryegrass, Italian [6, 10]: 100; Plant response rating, Ryegrass, Italian [6, 11]: 100; Ryegrass, Italian plant response rating [6, 12]: 100; Plant response rating, Ryegrass, Italian [6, 13]: 100; Plant response rating, Kochia (kochia (Kochia scoparia); [10]): 90; Plant response rating, Kochia (kochia (Kochia scoparia); [11]): 90; Kochia plant response rating (kochia (Kochia scoparia); [12]): 100; Plant response rating, Kochia (kochia (Kochia scoparia); [13]): 100; Mustard, Wild plant response rating [7, 15]: 5; Plant response rating, Mustard, Wild [7, 16]: 40; Plant response rating, Mustard, Wild [7, 17]: 75; Plant response rating (scale of 0 to 100), Mustard, Wild ([7]; Preemergence, 31 g ai/ha): 10; Plant response rating (scale of 0 to 100), Mustard, Wild ([7]; Preemergence, 62 g ai/ha): 0; Plant response rating, Mustard, Wild [7, 18]: 0; Plant response rating, Mustard, Wild [7, 19]: 20; Plant response rating, Mustard, Wild [7, 20]: 25

Question: Which results are given for CC(=O)Oc1c(C)nn(C)c(=O)c1-c1c(C)sc2ccc(Cl)cc12 [Compound 108]?
Answer: Plant response rating, Corn (corn (Zea mays); [8]): 0; Plant response rating, Corn (corn (Zea mays); [9]): 0; Plant response rating, Pigweed [1, 10]: 90; Plant response rating, Pigweed [1, 11]: 100; Pigweed plant response rating [1, 12]: 100; Plant response rating, Pigweed [1, 13]: 100; Plant response rating, Barnyardgrass [2, 10]: 30; Barnyardgrass plant response rating [2, 14]: 90; Barnyardgrass plant response rating [2, 12]: 20; Plant response rating, Barnyardgrass [2, 13]: 100; Plant response rating, Foxtail, Giant [3, 10]: 60; Plant response rating, Foxtail, Giant [3, 11]: 90; Foxtail, Giant plant response rating [3, 12]: 90; Plant response rating, Foxtail, Giant [3, 13]: 100; Plant response rating, Wheat [4, 8]: 0; Plant response rating, Wheat [4, 9]: 20; Plant response rating, Ragweed [5, 10]: 70; Plant response rating, Ragweed [5, 11]: 100; Ragweed plant response rating [5, 12]: 90; Plant response rating, Ragweed [5, 13]: 100; Plant response rating, Ryegrass, Italian [6, 10]: 100; Plant response rating, Ryegrass, Italian [6, 11]: 100; Ryegrass, Italian plant response rating [6, 12]: 100; Plant response rating, Ryegrass, Italian [6, 13]: 100; Plant response rating, Kochia (kochia (Kochia scoparia); [10]): 90; Plant response rating, Kochia (kochia (Kochia scoparia); [11]): 100; Kochia plant response rating (kochia (Kochia scoparia); [12]): 90; Plant response rating, Kochia (kochia (Kochia scoparia); [13]): 100; Mustard, Wild plant response rating [7, 15]: 70; Plant response rating, Mustard, Wild [7, 16]: 95; Plant response rating, Mustard, Wild [7, 17]: 100; Plant response rating (scale of 0 to 100), Mustard, Wild ([7]; Preemergence, 31 g ai/ha): 5; Plant response rating (scale of 0 to 100), Mustard, Wild ([7]; Preemergence, 62 g ai/ha): 60; Plant response rating, Mustard, Wild [7, 18]: 95; Plant response rating, Mustard, Wild [7, 19]: 85; Plant response rating, Mustard, Wild [7, 20]: 75

Question: Which “Plant response rating, Corn” value (corn (Zea mays); [8]) does the source give for Cc1nn(C)c(=O)c(-c2cccc3ccc(Br)cc23)c1O [Compound 126] here?
Answer: 0

Question: What about the “Plant response rating, Corn” value (corn (Zea mays); [9]) of the same compound?
Answer: 20

Question: What about the “Plant response rating, Pigweed” value [1, 10] of the same compound?
Answer: 90

Question: What about the “Plant response rating, Pigweed” value [1, 11] of the same compound?
Answer: 100

Question: What about the “Pigweed plant response rating” value [1, 12] of the same compound?
Answer: 100

Question: What about the “Plant response rating, Pigweed” value [1, 13] of the same compound?
Answer: 100

Question: What about the “Plant response rating, Barnyardgrass” value [2, 10] of the same compound?
Answer: 30

Question: And the “Plant response rating, Barnyardgrass” value [2, 11]?
Answer: 60

Question: What about the “Barnyardgrass plant response rating” value [2, 12] of the same compound?
Answer: 40

Question: What about the “Plant response rating, Barnyardgrass” value [2, 13] of the same compound?
Answer: 80

Question: And the “Plant response rating, Foxtail, Giant” value [3, 10]?
Answer: 20

Question: What about the “Plant response rating, Foxtail, Giant” value [3, 11] of the same compound?
Answer: 60

Question: And the “Foxtail, Giant plant response rating” value [3, 12]?
Answer: 10

Question: And the “Plant response rating, Foxtail, Giant” value [3, 13]?
Answer: 70

Question: And the “Plant response rating, Wheat” value [4, 8]?
Answer: 0

Question: What about the “Plant response rating, Wheat” value [4, 9] of the same compound?
Answer: 20

Question: What about the “Plant response rating, Ragweed” value [5, 10] of the same compound?
Answer: 90

Question: And the “Plant response rating, Ragweed” value [5, 11]?
Answer: 90

Question: And the “Ragweed plant response rating” value [5, 12]?
Answer: 70

Question: What about the “Plant response rating, Ragweed” value [5, 13] of the same compound?
Answer: 80

Question: What about the “Plant response rating, Ryegrass, Italian” value [6, 10] of the same compound?
Answer: 90

Question: What about the “Plant response rating, Ryegrass, Italian” value [6, 11] of the same compound?
Answer: 100

Question: What about the “Ryegrass, Italian plant response rating” value [6, 12] of the same compound?
Answer: 90

Question: What about the “Plant response rating, Ryegrass, Italian” value [6, 13] of the same compound?
Answer: 100

Question: What about the “Plant response rating, Kochia” value (kochia (Kochia scoparia); [10]) of the same compound?
Answer: 90

Question: What about the “Plant response rating, Kochia” value (kochia (Kochia scoparia); [11]) of the same compound?
Answer: 90

Question: What about the “Kochia plant response rating” value (kochia (Kochia scoparia); [12]) of the same compound?
Answer: 50

Question: What about the “Plant response rating, Kochia” value (kochia (Kochia scoparia); [13]) of the same compound?
Answer: 90

Question: And the “Mustard, Wild plant response rating” value [7, 15]?
Answer: 80

Question: And the “Plant response rating, Mustard, Wild” value [7, 16]?
Answer: 90

Question: What about the “Plant response rating, Mustard, Wild” value [7, 17] of the same compound?
Answer: 100

Question: And the “Plant response rating (scale of 0 to 100), Mustard, Wild” value ([7]; Preemergence, 31 g ai/ha)?
Answer: 60

Question: What about the “Plant response rating (scale of 0 to 100), Mustard, Wild” value ([7]; Preemergence, 62 g ai/ha) of the same compound?
Answer: 70

Question: And the “Plant response rating, Mustard, Wild” value [7, 18]?
Answer: 70

Question: And the “Plant response rating, Mustard, Wild” value [7, 19]?
Answer: 98

Question: What about the “Plant response rating, Mustard, Wild” value [7, 20] of the same compound?
Answer: 80
